Measured values from BindingDB's records for patent US20250268854 (C/O Vesper Bio, 2025).

What was measured:
Sortilin [1] = target: T1, Sortilin (Homo sapiens, UniProt Q99523); experiment: Neurotensin Scintillation Proximity Assay
T1 sequence (Q99523 whole entry): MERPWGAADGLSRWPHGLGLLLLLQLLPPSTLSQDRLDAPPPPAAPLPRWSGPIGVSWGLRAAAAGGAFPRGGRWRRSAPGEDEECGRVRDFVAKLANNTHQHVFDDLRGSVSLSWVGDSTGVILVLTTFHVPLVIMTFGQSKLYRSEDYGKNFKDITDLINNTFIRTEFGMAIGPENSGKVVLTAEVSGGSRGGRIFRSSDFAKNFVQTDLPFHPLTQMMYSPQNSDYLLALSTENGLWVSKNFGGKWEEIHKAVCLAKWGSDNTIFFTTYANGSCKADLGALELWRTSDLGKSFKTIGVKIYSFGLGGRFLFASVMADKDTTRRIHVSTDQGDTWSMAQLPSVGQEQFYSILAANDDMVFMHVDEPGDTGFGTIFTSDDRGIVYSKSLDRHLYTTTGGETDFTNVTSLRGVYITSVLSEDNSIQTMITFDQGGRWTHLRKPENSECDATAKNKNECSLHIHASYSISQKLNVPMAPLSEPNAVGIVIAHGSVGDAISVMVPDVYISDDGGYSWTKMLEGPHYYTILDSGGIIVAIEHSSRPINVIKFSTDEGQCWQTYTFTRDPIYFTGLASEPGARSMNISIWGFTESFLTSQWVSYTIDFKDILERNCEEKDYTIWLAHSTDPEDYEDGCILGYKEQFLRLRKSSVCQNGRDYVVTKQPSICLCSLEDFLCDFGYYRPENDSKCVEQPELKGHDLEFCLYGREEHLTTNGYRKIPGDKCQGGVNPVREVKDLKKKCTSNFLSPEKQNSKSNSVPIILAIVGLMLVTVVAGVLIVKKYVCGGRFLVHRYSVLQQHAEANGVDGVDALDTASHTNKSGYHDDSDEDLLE
Method: Compound affinity was determined by measuring the displacement of [3H]-neurotensin binding to h-Sortilin in SPA format. Total volume of 40 μl in 50 mM HEPES pH 7.4 assay buffer containing 100 mM NaCl, 2.0 mM CaCl2, 0.1% BSA and 0.1% Tween-20. […] Dose-response evaluation of compounds was performed with 8 concentrations of drugs (covering 3 decades). IC50 values were calculated by nonlinear regression using the sigmoid concentration-response (variable slope) using CDD Vault software. All values reported are average of at least 2 determinations.

Sortilin [2] = target: T1, Sortilin; experiment: Rapid Kinetics Assay
Method: Compounds were screened at a final assay concentration of 1 μM and a final DMSO concentration was 1%. To achieve this, compounds were diluted in DMSO from 10 mM stocks to 100 μM (100×final assay concentration) then diluted 1:100 in running buffer which contained no DMSO to establish a final assay concentration of compound of 1 μM and a final DMSO concentration of 1% [DMSO].Compounds and DMSO were mixed by plate shaking at 1000 rpm for 60 seconds using a Bioshake instrument.

| IC50 (Sortilin [1]) [nM] | Kd (Sortilin [2]) [nM] | SMILES |
| --- | --- | --- |
| 1490 |  | CC(C)(C)CC[C@H](NC1=NC2C=CC=CC2OC2C=CC=CC12)C(=O)O (some centres undefined) [US20250268854, Example 20] |
| 840 |  | CC(C)(C)CC[C@H](NCC1=CC(Cl)CC(Cl)=C1)C(=O)O (some centres undefined) [US20250268854, Example 32] |
| 720 | 492 | COc1cccc(CN[C@@H](CCC(C)(C)C)C(=O)O)c1F [US20250268854, Example 34] |
| 610 |  | CC(C)(C)CC[C@H](NCc1cc2ccccc2[nH]1)C(=O)O [US20250268854, Example 50] |
| 200 | 56.7 | C[C@@H](N[C@@H](CCC(C)(C)C)C(=O)O)c1cccc2c1ccn2C [US20250268854, Example 63] |
| 460 | 102 | C[C@H](N[C@@H](CCC(C)(C)C)C(=O)O)c1cccc2c1ccn2C [US20250268854, Example 64] |
| 1600 | 26400 | CC(C)(C)CC[C@H](NCc1ccncn1)C(=O)O [US20250268854, Example 136] |
| 430 | 310 | COC1C=C(CN[C@@H](CCC(C)(C)C)C(=O)O)C=NC1 (some centres undefined) [US20250268854, Example 144] |

| SMILES | IC50 (Sortilin [1]) [nM] | Kd (Sortilin [2]) [nM] |
| --- | --- | --- |
| CC(C)(C)CC[C@H](NCc1cccc(C#N)c1)C(=O)O [US20250268854, Example 142] | 1260 |  |
